# In patent US11091749B2, “Deimmunized lysostaphin and methods of use” (TRUSTEES OF DARTMOUTH COLLEGE, priority 2014, dated 2021):
# Columns and labels:
# [1] = tested on: MRSA strain USA400; experiment: S. aureus recurrent bacteremia model, in vivo efficacy; parameters: species or system DR4 mice; settings: 500 μg i.v.
# Description: Prior to bacterial challenge, the immune systems of DR4 mice (N=3 per group) were primed 3-times with weekly subcutaneous injections of 100 μg LST^WT or Lib5 variant in sterile phosphate buffered saline (PBS: 2.7 mM KCl, 1.5 mM KH2PO4, 8.9 mM Na2HPO4, 136.9 mM NaCl, pH 7.4). These immunizations and boosts contained no adjuvant. Anti-LST antibody titers were determined as described above. For the first cycle of infection and treatment, mice were challenged with intraperitoneal administration of 2×10^8 CFU Staphylococcus aureus strain USA400 in a 3% suspension of porcine mucin, and one hour later were treated by intravenous tail vein administration of 500 μg of LST^WT or Lib5 variant in sterile PBS. Mice that were rescued by the enzyme treatment underwent subsequent infection and treatment cycles at weekly intervals. To compensate for development of innate murine antibacterial immunity following the first bacterial exposure, mice were challenged with 1×10^9 CFU USA400 in the second and third cycles, but the treatments remained at 500 μg of the appropriate protein. As a control to verify the lethal bacterial dose in each cycle, one mouse was given a sham treatment of PBS.
# Using an S. aureus recurrent bacteremia model, the extent to which LST immunogenicity impacted in vivo efficacy was subsequently evaluated. […]
# [2] = tested on: S. aureus strain SA113; experiment: MIC activity relative to LST^WT; assay type: cell-based, Staphylococcus aureus; settings: % fold dilution relative to wild type
# Description: LST and its derivatives were secreted from P. pastoris. Briefly, recombinant Pichia strains were cultured in a 2.5 L bioreactor (Applicon Biotechnology), and the proteins were captured from the supernatant by polyethylene glycol-6000 (PEG-6000) precipitation and purified to homogeneity by SP SEPHAROSE F.F. cation exchange chromatography. Endotoxin was removed from the protein preparation by TRITON-X114 extraction (Liu, et al. (1997) Clin. Biochem. 30:455-63). Protein expression levels were estimated by densitometry analysis of SDS-PAGE gels.
# [3] = tested on: MRSA strain USA400; experiment: In vivo efficacy of F11, intraperitoneal MRSA challenge; parameters: species or system C57BL/6 mice; settings: 100 μg single bolus i.v. 1 h after 2×10^8 MRSA i.p.
# Description: Mice were challenged with an intraperitoneal injection of 2×10^8 MRSA strain USA400, and 1 hour later the mice were treated with 100 μg wild-type LST, F11 or PBS. The percent survival is shown.
# The in vivo efficacy of the F11 variant was further analyzed in C57BL/6 mice. Mice were challenged with an intraperitoneal injection of 2×10^8 MRSA strain USA400, and 1 hour later the mice were treated with 100 μg wild-type LST, F11 or PBS, administered as a single bolus intravenous injection. The survival rate for both protein treatments was 1/3. The 100 μg dosage was selected because wild-type LST is known to be only partially efficacious at this dose.
# [4] = tested on: S. aureus SA113; experiment: MIC assay; assay type: cell-based, Staphylococcus aureus
# Description: (§1) The MICs of wild-type lysostaphin and its variants were determined by adding 2-fold serial dilutions of enzymes into wells of a polypropylene 96-well plate (Costar 3879) containing ˜40,000 S. aureus SA113 (or S. aureus 6445, 3425-1, 3425-3) cells in Muller Hinton broth (BD) supplemented with 2% NaCl and 0.1% bovine serum albumin, yielding a total volume of 100 μl. Plates were grown overnight at 37° C. with shaking at 900 rpm on an Orbit P4 orbital shaker (Labnet; Edison, N.J.). […] The assay was performed in triplicate for each enzyme.
# [5] = tested on: MRSA strain 3425-3; experiment: MIC assay; assay type: cell-based, Staphylococcus aureus; settings: biological duplicates
# Description: as §1
# [6] = tested on: S. aureus 3425-1; experiment: MIC assay; assay type: cell-based, Staphylococcus aureus; settings: biological duplicates
# Description: as §1
substance,measurement,setting,value
Wild-Type: wild-type lysostaphin (SEQ ID NO:49) produced in P. pastoris; aglycosylated Ser126Pro backbone in the design studies [reference compound],rescue from infection,"[1]; first cycle, 2×10^8 CFU i.p.",rescued
same,rescue from infection,"[1]; second cycle, 10^9 CFU",failed to rescue any of the three treated mice
same,Activity (% WT),[2],100 % WT
same,survival rate,[3],1/3
same,MIC,"[4]; S. aureus SA113, purified enzyme",0.0351 µg/mL
same,MIC Strain SA113,[4]; biological duplicates,0.02 µg/mL
same,MIC Strain 3425-3,[5],0.03 µg/mL
same,MIC Strain 3425-1,[6],0.04 µg/mL
